Data taken from patent US20230384330A1, “COMPOSITIONS AND METHODS RELATING TO THE IDENTIFICATION AND TREATMENT OF IMMUNOTHROMBOTIC CONDITIONS” (THE REGENTS OF THE UNIVERSITY OF MICHIGAN, priority 2020, published 2023).
“Also recorded” adds a separate entry of the source.

Columns and labels:
[1] = system: CD142/Tissue factor; assay: CD142/Tissue factor expression on PBMC populations by flow cytometry; type: cell-based, human; settings: for CD142 expression (percent positive CD142+) in monocytes and granulocytes: PBMCs, 1 ug/mL LPS or 155 ug/mL LpA, 4 hours; for CD142/Tissue factor induction by LPS: PBMC pre-treated 1 hr with Annexin V 10 ug/ml, then LPS 1 ug/ml 4 hours
Method: (§1) FIGS. 2A-2B: Monocytes activated by inflammatory stimuli increase TF/CD142 expression and activity. PBMC were isolated from healthy controls and stimulated with LPS (1 ug/ml for 4 h) and compared with no treatment (NT) controls. […] B) Tissue factor activity was assessed in both cells and supernatants in PBMC treated with LPS (1 ug/ml for 4 h). The tissue factor activity was quantified based on the ability of TF/FVIIa to activate FX to factor Xa. The amidolytic activity of the TF/FVIIa complex is quantitated by the amount of FXa produced using a highly specific FXa substrate which releases a chromophore upon cleavage. *p<0.05.
(§2) FIGS. 5A-5C: Annexin V peptide pretreatment blocks LPS induction of CD142/Tissue factor and CD142/Tissue factor activity. PBMC were pre-treated for 1 hr with Annexin V (10 ug/ml) or PBS and then stimulated with LPS (1 ug/ml) for 4 hours. PBMC were analyzed with either flow cytometry or tissue factor activity assay. A) Representative SSC vs. FSC gating strategy for Monocytes and Lymphocytes; B) CD142/Tissue factor was assessed by flow cytometry. Annexin V pre-treatment blocks CD142/Tissue factor induction by LPS. C). CD142/Tissue factor activity using substrate cleavage and FXa generation. Results are representative of three independent experiments. *p<0.05
PBMCs were isolated and treated with 1 ug/mL LPS, 155 ug/mL LpA, or a combination of the above for 4 hours with gentle vortexing every 30 minutes. Cells were blocked with Tru-Stain FcX for 10 minutes and then treated with human anti CD142-PE for 30 minutes on ice. Cells were then analyzed via flow cytometry. (A) Representative FSC vs. SSC gating strategy. (B) Percent positive CD142+ for lymphocytes. (C) Percent positive CD142+ for monocytes. (D) Percent positive CD142+ for granulocytes. N=3. *p-value<0.0001 (ANOVA).

[2] = system: NFκB; assay: NFκB activation in THP1-Dual monocytes (SEAP, QUANTI-Blue assay); type: cell-based, human; settings: 24 h, 77.5 ug/mL Lp(a)
Method: FIG. 10: Lp(a) increases NFκB induction on THP1-Dual monocytes; addition of TLR2 decreases activation effect of Lp(a). THP1-Dual monocytes stimulated for 24 h with 77.5 ug/mL Lp(a), 77.5 μg/mL Lp(a)+10 μg/mL TR2, 77.5 μg/mL Lp(a)+10 μg/mL TR4, and 100 ng/mL Pam2CSK4. After 24 h stimulation, supernatant was collected and NFκB activation was assessed by measuring the levels of SEAP using QUANTI-Blue assay. Levels of SEAP were determined by reading the optical density at 640 nm. *p-value<0.0001 (ANOVA).
THP1-Dual monocytes stimulated for 24 h with 77.5 ug/mL Lp(a), 77.5 ug/mL Lp(a)+10 ug/ml TLR2, 77.5 ug/ml Lp(a)+10 ug/ml TLR4, and 100 ng/mL Pam2CSK4. After 24 h stimulation, supernatant was collected and NFkB activation was assessed by measuring the levels of SEAP using QUANTI-Blue assay. Levels of SEAP were determined by reading the optical density at 640 nm. *p-value<0.0001 (ANOVA). […] THP1-Dual monocytes stimulated for 24 h with 77.5 ug/mL Lp(a), 77.5 ug/mL Lp(a)+10 ug/ml TLR2, 77.5 ug/ml LpA+10 ug/ml TLR4, and 100 ng/mL Pam2CSK4. After 24 h stimulation, supernatant was collected and IRF activation was assessed by measuring the levels of Lucia luciferase using QUANTI-Luc assay. Levels of Lucia luciferase were determined by measuring the relative light units (RLUs) in a luminometer at a 100 ms reading time.

[3] = system: CD142/TF; assay: qRT-PCR of CD142/TF in CD14+ monocytes treated with LPS with and without heparin; type: cell-based, human
Method: (§3) FIGS. 3A-3B: Heparin augments type I IFN/STAT1 signaling and tends to blunt CD142/TF transcriptional induction in response to LPS. A) CD14+ monocytes were stimulated with LPS (1 ug/ml; 4 h) and heparin (Hep) (10 u/ml) and signal pathway activation was probed using microfluidic proteomics. […] However, phospo-STAT1 activation was augmented in monocytes cotreated with LPS and Hep. Normalized activation determined by normalizing phospho proteins to total protein. B) qRT-PCR of CD14+ monocytes treated with LPS with and without Hep. […] Fold-change determined normalizing to GAPDH and to NT groups. *p<0.05; #p=0.07
PCR gene expression assay. RNA was then eluted in 32 uL RNase free water and concentration and purity were measured using Nanodrop. Applied Biosystems High-Capacity cDNA Reverse Transcription kit was used to convert RNA into cDNA for qPCR per the manufacturer's instructions. PCR was performed in 96 well plate using Taqman master mix and Taqman primers. 1× GAPDH-VIC and 1× target gene-FAM was used for each PCR reaction as housekeeping control gene and target gene respectively (total of 20 μL reaction volume). “No treatment control” is used to normalize each target gene expression for analysis of experimental groups.

[4] = system: p-p65 and p-PKC; assay: Signal pathway activation in CD14+ monocytes treated with LPS and heparin, microfluidic proteomics (p-p65, p-PKC); type: cell-based, human; settings: LPS 1 ug/ml 4 h and heparin 10 u/ml, between groups
Method: as §3
PBMC treatment and stimulation. Approximately 10 million cells were equally divided into 4 fractions and treated with the following (for Hep experiments): 1) Hep (1.5 U/mL), 2) LPS (1 μg/mL), 3) LPS+Hep (1 μg/mL LPS with 1.5 U/mL Hep), and 4) RPMI medium alone. All treatments were performed for 2 hours in suspension at 37° C. and 5% CO2 with gentle vortexing every 30 minutes to prevent cell sedimentation. After 2-hour incubation, cells were centrifuged, and supernatants were collected. Cells were then resuspended in 1 mL PBS (without Ca^2+ and Mg ^2+) for downstream analysis

[5] = system: PBMCs
[6] = system: STAT1; assay: Signal pathway activation in monocytes/PBMC treated with LPS and heparin, microfluidic proteomics (phospho-STAT1); type: cell-based, human; settings: LPS 1 ug/ml 4 h cotreated with heparin 10 u/ml, vs LPS alone
[7] = system: PBMC; assay: Signaling pathway activation and inflammatory transcriptional programs in PBMC, heparin alone; type: cell-based, human
[8] = system: CD142/TF; assay: CD142/TF expression in PBMC stimulated with TLR ligands, mass cytometry; type: cell-based, human; settings: PBMC from HC stimulated 4 h, vs no treated (NT) controls
Method: FIGS. 12A-12C: Inflammatory mediators increase CD142/TF expression and activity in monocytes. A) PBMC were isolated from HC and stimulated with Pam2CSK4(TLR2), Poly(I:C) (TLR3), and LPS (TLR4) for 4 h. […] Circles represent CD14+ monocytes. B) PBMC were isolated and stimulated with LPS and Ang II (vascular activator) and TF activity was quantified based on the ability of TF/FVIIa to activate FX to factor Xa. The amidolytic activity of the TF/FVIIa complex is quantitated by the amount of FXa produced using a FXa substrate which releases a chromophore upon cleavage. *p<0.05. C) To probe for the mechanisms that regulate TF expression in circulating monocytes, PBMC were isolated and stimulated with LPS with or without Annexin V (AnnV) to block apoptotic sensing (through masking of PS on target cells/particles) in monocytes. […] Results representative of 3 independent experiments.
To determine if inflammatory mediators can drive monocyte TF expression, CD14+ monocytes were isolated from PBMCs and stimulated with TLR ligands (Pam2Csk4; Poly(I:C); LPS) for 4 hours.
Measurement of inflammatory mediated TF expression. To determine if inflammatory mediators can drive monocyte TF expression, CD14+ monocytes were isolated from peripheral blood mononuclear cells (PBMC) and were stimulated with TLR ligands (Pam2Csk4; Poly(I:C); LPS) for 4 hours. To assess if monocyte-bound TF is active, a FXa activity assay was used. CD14+ monocytes were stimulated with LPS and FXa activity was assessed as a marker of TF activity.

[9] = system: TF/FVIIa complex; assay: Tissue factor activity assay (TF/FVIIa activation of FX to FXa, chromogenic substrate) in PBMC; type: cell-based, human
Method: as §1
as §2, with “Annexin V pre-treatment blocks CD142/Tissue factor induction by LPS. C). CD142/Tissue factor activity using substrate cleavage and FXa generation. Results are representative of three independent experiments. *p<0.05” left out
Active TF catalyzes the conversion of factor X to Xa; TF activity in plasma, microvesicles, and monocytes were measured by quantifying factor Xa activity using the fluorogenic factor Xa substrate (Abcam). TF activity was quantified based on the ability of TF/FVIIa to activate FX to FXa. […]

## lipoprotein (a) [Lp(a)]
[1]
  CD142 expression (percent positive CD142+) in monocytes and granulocytes: upregulated
[2]
  NFκB induction (SEAP, optical density at 640 nm): increases

## heparin
[3]; cotreatment with LPS and heparin, fold-change normalized to GAPDH and NT, #p=0.07
  transcriptional induction of CD142/TF by LPS: trend to blunted transcriptional expression; also recorded: seemed to blunt
[4]
  p-p65 and p-PKC activation: no differences
[5]
  cytotoxicity: not cytotoxic
[6]
  phospho-STAT1 activation (phospho protein normalized to total protein): augmented; also recorded: increases in STAT1 activation
[7]
  signaling pathway activation or inflammatory transcriptional programs: no effects

## Poly(I:C)
[8]
  CD142/TF expression (viSNE plots, CD14+ monocytes): increased CD142/TF expression

## Pam2CSK4
[8]
  CD142/TF expression (viSNE plots, CD14+ monocytes): increased CD142/TF expression

## lipopolysaccharide [LPS]
[8]
  CD142/TF expression (viSNE plots, CD14+ monocytes): increased CD142/TF expression
[3]; LPS alone, CD14+ monocytes, vs NT
  CD142/TF transcriptional expression: induced
[1]; LPS 1 ug/ml, 2-4 h, vs no treatment (NT)
  CD142/TF expression in monocytes: induce TF expression; also recorded: rapid and robust induction; also recorded: rapidly drives TF expression
[1]
  CD142 expression (percent positive CD142+) in monocytes and granulocytes: upregulated
[1]; response to LPS
  TF induction in purified CD14+ Mϕ compared with bulk PBMC stimulation: much less TF induction
[9]; PBMC/monocytes stimulated with inflammatory stimulus, vs untreated
  TF activity (FXa production): increases TF activity

B1: Annexin V (protein, UniProt P08758 2-320, looked up)
Annexin A5: AQVLRGTVTDFPGFDERADAETLRKAMKGLGTDEESILTLLTSRSNAQRQEISAAFKTLFGRDLLDDLKSELTGKFEKLIVALMKPSRLYDAYELKHALKGAGTNEKVLTEIIASRTPEELRAIKQVYEEEYGSSLEDDVVGDTSGYYQRMLVVLLQANRDPDAGIDEAQVEQDAQALFQAGELKWGTDEEKFITIFGTRSVSHLRKVFDKYMTISGFQIEETIDRETSGNLEQLLLAVVKSIRSIPAYLAETLYYAMKGAGTDDHTLIRVMVSRSEIDLFNIRKEFRKNFATSLYSMIKGDTSGDYKKALLLLCGEDD
[1]
  CD142/Tissue factor induction by LPS: blocks
[1]; listed as AnnV
  CD142/Tissue factor induction by LPS: greatly reduced
[1]; listed as annexin V
  CD142/Tissue factor induction by LPS: dramatic blunting
[9]; PBMC pre-treated 1 hr with Annexin V 10 ug/ml, then LPS 1 ug/ml 4 hours
  CD142/Tissue factor activity (FXa generation) induced by LPS: blocks
